# US20260258064A1 (SIRONAX LTD., priority 2023, published 2026)
# Molecular target: T1, SARM1 (50-724) (Homo sapiens, UniProt Q6SZW1)
# T1 construct: Purified SARM1 (50-724) with a final concentration of 2 nM was pre-incubated with a test compound
# T1 sequence (Q6SZW1 50-724): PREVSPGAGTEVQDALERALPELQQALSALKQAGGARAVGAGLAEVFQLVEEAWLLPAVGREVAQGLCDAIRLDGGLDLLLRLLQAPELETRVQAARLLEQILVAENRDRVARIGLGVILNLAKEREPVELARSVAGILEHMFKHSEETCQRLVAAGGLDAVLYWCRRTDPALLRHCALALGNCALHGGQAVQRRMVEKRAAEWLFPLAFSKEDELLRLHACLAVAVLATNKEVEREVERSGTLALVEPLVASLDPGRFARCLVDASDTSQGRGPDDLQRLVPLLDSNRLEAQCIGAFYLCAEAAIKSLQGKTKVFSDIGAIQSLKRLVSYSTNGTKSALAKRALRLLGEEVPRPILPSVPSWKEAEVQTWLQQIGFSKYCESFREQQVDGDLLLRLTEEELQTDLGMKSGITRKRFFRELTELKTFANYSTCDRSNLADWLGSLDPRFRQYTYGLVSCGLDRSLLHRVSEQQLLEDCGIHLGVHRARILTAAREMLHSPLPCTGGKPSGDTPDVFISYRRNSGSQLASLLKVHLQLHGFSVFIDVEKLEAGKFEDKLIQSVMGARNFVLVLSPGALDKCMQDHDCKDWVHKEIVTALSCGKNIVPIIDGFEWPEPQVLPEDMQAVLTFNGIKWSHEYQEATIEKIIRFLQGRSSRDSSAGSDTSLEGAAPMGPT
# Assay: SARM1 (50-724) enzymatic assay (LC-MS/MS)
# Assay type: biochemical
# Conditions: Purified SARM1 (50-724) 2 nM, NMN as activator, NAD+ as substrate, 1 h at room temperature, read-out: IC50 (SARM1 inhibitory activity)
# In short: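 Reaction buffer was Dulbecco's PBS. Compound and 2 nM human SARM1 (50-724) were pre-incubated 15 min at room temperature, then […] NAD^+ and 200 µM NMN activator were added for 1 h at room temperature. Acetonitrile (70%) stop, LC-MS/MS read-out, IC50 values.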
row,SMILES,IC50 [nM]
1,"NC1CC1c1ccc2[nH]c(-c3nncn3-c3cnccc3C(F)(F)F)nc2c1F (stereo not shown) [Compound 324, 2-(4-fluoro-2-(4-(4-(trifluoromethyl)pyridin-3-yl)-4H-1,2,4-triazol-3-yl)-1H-benzo[d]imidazol-5-yl)cyclopropan-1-amine]",100 to 500
2,OCCOc1cc(-c2nc3cc(C(F)(F)F)ccc3[nH]2)c(-c2cccc(Cl)c2Cl)cn1 [Example 65],≤ 100
3,Cn1cc(-c2cccc(Cl)c2Cl)c(-c2nc3cc(C(F)(F)F)ccc3[nH]2)cc1=O [Example 48],≤ 100
4,"Clc1cccc(-n2cnnc2-c2nc3cc(C4COC4)ccc3[nH]2)c1Cl [Example 55, 2-(4-(2,3-dichlorophenyl)-4H-1,2,4-triazol-3-yl)-5-(oxetan-3-yl)-1H-benzo[d]imidazole]",100 to 500
5,"NC(=O)Cn1cc(-c2cccc(F)c2Cl)c(-c2nc3cc(C(F)(F)F)ccc3[nH]2)cc1=O [Compound 199, 2-(5-(2-chloro-3-fluorophenyl)-2-oxo-4-(5-(trifluoromethyl)-1H-benzo[d]imidazol-2-yl)pyridin-1(2H)-yl)acetamide]",≤ 100
6,"Cc1nnc(-c2nc3cc(C(F)(F)F)ccc3[nH]2)n1-c1cccc(Cl)c1Cl [Example 87, 2-(4-(2,3-dichlorophenyl)-5-methyl-4H-1,2,4-triazol-3-yl)-5-(trifluoromethyl)-1H-benzo[d]imidazole]",≤ 100
7,Cc1ccc2[nH]c(-c3n[nH]c(=O)n3C3CCCC3)nc2c1 [Compound 14],> 1000
8,"Oc1ccc(C(F)(F)F)c(-n2cnnc2-c2nc3cc(C(F)(F)F)ccc3[nH]2)c1 [Compound 240, 4-(trifluoromethyl)-3-(3-(5-(trifluoromethyl)-1H-benzo[d]imidazol-2-yl)-4H-1,2,4-triazol-4-yl)phenol]",≤ 100
9,"OCCOc1cc(-n2cnnc2-c2cc3cc(C(F)(F)F)cc(F)c3[nH]2)c(OC(F)(F)F)cn1 [Compound 411, 2-((4-(3-(7-fluoro-5-(trifluoromethyl)-1H-indol-2-yl)-4H-1,2,4-triazol-4-yl)-5-(trifluoromethoxy)pyridin-2-yl)oxy)ethanol]",≤ 100
10,OC1CC(OCc2nnc(-c3nc4cc(C(F)(F)F)ccc4[nH]3)n2-c2cccc(Cl)c2Cl)C1 (stereo not shown) [Example 127],≤ 100
11,"CC(c1ccccc1)c1cc(F)c2[nH]c(-c3nncn3-c3cnccc3C(F)(F)F)nc2c1 (stereo not shown) [Compound 431, 7-fluoro-5-(1-phenylethyl)-2-(4-(4-(trifluoromethyl)pyridin-3-yl)-4H-1,2,4-triazol-3-yl)-1H-benzo[d]imidazole]",≤ 100
12,"CC(C)(O)Cc1nnc(-c2nc3cc(C(F)(F)F)ccc3[nH]2)n1-c1cccc(F)c1Cl [Compound 388, 1-(4-(2-chloro-3-fluorophenyl)-5-(5-(trifluoromethyl)-1H-benzo[d]imidazol-2-yl)-4H-1,2,4-triazol-3-yl)-2-methylpropan-2-ol]",≤ 100
13,"CC(C)(N)c1ccc2[nH]c(-c3nncn3-c3cnccc3C(F)(F)F)nc2c1 [Compound 448, 2-[2-[4-[4-(trifluoromethyl)-3-pyridyl]-1,2,4-triazol-3-yl]-1H-benzimidazol-5-yl]propan-2-amine]",100 to 500
14,"OCCOc1ccc(OC(F)(F)F)c(-n2cnnc2-c2nc3cc(C(F)(F)F)ccc3[nH]2)c1 [Compound 230, 2-(4-(trifluoromethoxy)-3-(3-(5-(trifluoromethyl)-1H-benzo[d]imidazol-2-yl)-4H-1,2,4-triazol-4-yl)phenoxy)ethan-1-ol]",≤ 100
15,"Cc1c(Cl)ccc2[nH]c(-c3nncn3-c3ccc(F)c(F)c3Cl)nc12 [Compound 164, 5-chloro-2-(4-(2-chloro-3,4-difluorophenyl)-4H-1,2,4-triazol-3-yl)-4-methyl-1H-benzo[d]imidazole]",≤ 100
16,"Clc1cccc(-n2cnnc2-c2nc3cc(-c4ccn[nH]4)ccc3[nH]2)c1Cl [Example 68, 2-(4-(2,3-dichlorophenyl)-4H-1,2,4-triazol-3-yl)-5-(1H-pyrazol-5-yl)-1H-benzo[d]imidazole]",≤ 100
17,"Cc1ccc2[nH]c(C3=C(C4CCCC4)COC3=O)nc2c1 [Compound 9, 4-Cyclopentyl-3-(5-methyl-1H-benzo[d]imidazol-2-yl)furan-2(5H)-one]",> 1000
18,"N#Cc1c(Cl)ccc2[nH]c(-c3nncn3-c3cccc(Cl)c3Cl)nc12 [Example 50, 5-chloro-2-(4-(2,3-dichlorophenyl)-4H-1,2,4-triazol-3-yl)-1H-benzo[d]imidazole-4-carbonitrile]",100 to 500
19,"O=c1[nH]nc(-c2nc3cc(C(F)(F)F)ccc3[nH]2)n1-c1cccc(Cl)c1Cl [Compound 36, 4-(2,3-dichlorophenyl)-5-(5-(trifluoromethyl)-1H-benzo[d]imidazol-2-yl)-2,4-dihydro-3H-1,2,4-triazol-3-one]",100 to 500
20,"Cn1ncc(Cl)c1-c1ccnnc1-c1nc2cc(C(F)(F)F)ccc2[nH]1 [Compound 399, 2-(4-(4-chloro-1-methyl-1H-pyrazol-5-yl)pyridazin-3-yl)-5-(trifluoromethyl)-1H-benzo[d]imidazole]",≤ 100
21,"FC(F)(F)c1ccncc1-n1cnnc1-c1nc2cc(C34COC(C3)C4)ccc2[nH]1 [Compound 362, 5-(2-oxabicyclo[2.1.1]hexan-4-yl)-2-[4-[4-(trifluoromethyl)-3-pyridyl]-1,2,4-triazol-3-yl]-1H-benzimidazole]",100 to 500
22,"Cc1nocc1-n1cnnc1-c1nc2cc(C(F)(F)F)ccc2[nH]1 [Compound 269, 3-methyl-4-(3-(5-(trifluoromethyl)-1H-benzo[d]imidazol-2-yl)-4H-1,2,4-triazol-4-yl)isoxazole]",> 1000
23,"CC1CC(c2cc(F)c3[nH]c(-c4nncn4-c4cnccc4C(F)(F)F)nc3c2)CO1 (stereo not shown) [Compound 423, 7-fluoro-5-(5-methyltetrahydrofuran-3-yl)-2-[4-[4-(trifluoromethyl)-3-pyridyl]-1,2,4-triazol-3-yl]-1H-benzimidazole]",≤ 100
24,"CC1(C)CC1c1cc(F)c2[nH]c(-c3nncn3-c3cnccc3C(F)(F)F)nc2c1 (stereo not shown) [Compound 347, 5-(2,2-dimethylcyclopropyl)-7-fluoro-2-(4-(4-(trifluoromethyl)pyridin-3-yl)-4H-1,2,4-triazol-3-yl)-1H-benzo[d]imidazole]",≤ 100
25,"Cn1cc(OC(F)(F)F)c(-n2cnnc2-c2nc3c(F)c(C4CC4)ccc3[nH]2)cc1=O [Compound 354, 4-(3-(5-cyclopropyl-4-fluoro-1H-benzo[d]imidazol-2-yl)-4H-1,2,4-triazol-4-yl)-1-methyl-5-(trifluoromethoxy)pyridin-2(1H)-one]",≤ 100
26,OCCc1cc(-n2cnnc2-c2nc3cc(C(F)(F)F)ccc3[nH]2)c(OC(F)(F)F)cn1 [Compound 265],≤ 100
27,"CC(C)(C)Oc1cnccc1-n1cnnc1-c1nc2cc(C(F)(F)F)ccc2[nH]1 [Compound 219, 2-(4-(3-(tert-butoxy)pyridin-4-yl)-4H-1,2,4-triazol-3-yl)-5-(trifluoromethyl)-1H-benzo[d]imidazole]",100 to 500
28,"FC(F)(F)c1ccc2[nH]c(-n3nncc3-c3cccc(Cl)c3Cl)nc2c1 [Compound 315, 2-(5-(2,3-dichlorophenyl)-1H-1,2,3-triazol-1-yl)-5-(trifluoromethyl)-1H-benzo[d]imidazole]",≤ 100
